Reference: publication PMC6825211 (Nature Communications, 2019)
Several values for one entry are separate records, joined by “and”; a condition that tells them apart may be missing. Equal entries are not always repeated.

Assays:
[1] = target: IKK-BETA (Homo sapiens, UniProt O14920); assay: Nanosyn kinase profiling, mobility shift assay; conditions: read-out: % inhibition by neratinib
[2] = target: PRKD2 (Homo sapiens, UniProt Q9BZL6); assay: Nanosyn kinase profiling, mobility shift assay; conditions: read-out: % inhibition by neratinib
[3] = target: MAPKAPK-2 (Homo sapiens, UniProt P49137); assay: Nanosyn kinase profiling, mobility shift assay; conditions: read-out: % inhibition by neratinib
[4] = target: TYK2 (Homo sapiens, UniProt P29597); assay: Nanosyn kinase profiling, mobility shift assay; conditions: read-out: % inhibition by neratinib
[5] = tested on: MLD–STZ C57BL/6J mice; assay: MLD–STZ model: random fed blood glucose; format: in vivo, mouse; set-up: AUC glycemia: unit not given here
Experimental: C57Bl/6J mice were injected with 40 mg/kg streptozotocin or citrate buffer for 5 consecutive days. […] In d, basal glucose values were normalized to 100%. e Insulin secretion measured from retro-orbital blood draw during an ipGTT measured before (0 min) and 15 min after glucose injection; data are expressed as the ratio of secreted insulin at 15 min/0 min (stimulatory index). f The ratio of secreted insulin and glucose is calculated at fed state. g–i Mice were killed at day 35. g β-cell mass (given as percentage of the whole pancreatic section from ten sections spanning the width of the pancreas) and quantitative analyses from triple staining for h TUNEL or i Ki67, insulin, and DAPI expressed as percentage of TUNEL- or Ki67-positive β-cells ±SEM. An average number of 2331 (h), or 26369 (i) β-cells were counted. n = 9 mice/group for (a); n = 4–12 for (b); n = 5–15 for (c) and (d); n = 12–19 for (e); n = 8–14 for (f); n = 4–9 for (g); n = 4–11 for (h); and n = 6–11 mice/groupfor (i); all from three independent experiments).

[6] = db/db model: body weight; conditions: 5 mg/kg i.p. daily, 31 days
[7] = target: CHEK1 (Homo sapiens, UniProt O14757); assay: Nanosyn kinase profiling, mobility shift assay; conditions: read-out: % inhibition by neratinib
[8] = target: CAMK4 (Homo sapiens, UniProt Q16566); assay: Nanosyn kinase profiling, mobility shift assay; conditions: read-out: % inhibition by neratinib
[9] = tested on: MST1–LATS2 signaling; assay: Western blot of YAP-S127 phosphorylation (MST1/LATS2 overexpression); conditions: 10 μM, last 24 h
[10] = tested on: isolated islets from MST1-KO mice; assay: β-cell apoptosis (TUNEL/insulin) under diabetogenic conditions, MST1-KO islets
[11] = target: AURORA-A (Homo sapiens, UniProt O14965); assay: Nanosyn kinase profiling, mobility shift assay; conditions: read-out: % inhibition by neratinib
[12] = target: MAP4K4 (Homo sapiens, UniProt O95819); assay: biochemical; conditions: read-out: % inhibition by neratinib
[13] = target: GSK-3-BETA (Homo sapiens, UniProt P49841); assay: Nanosyn kinase profiling, mobility shift assay; conditions: read-out: % inhibition by neratinib
[14] = target: CDK1 (Homo sapiens, UniProt P06493); assay: Nanosyn kinase profiling, mobility shift assay; conditions: read-out: % inhibition by neratinib
[15] = target: CDK2 (Homo sapiens, UniProt P24941); assay: Nanosyn kinase profiling, mobility shift assay; conditions: read-out: % inhibition by neratinib
[16] = tested on: Raw264.7 cells; assay: RT-PCR of LPS-induced TNFα, IL-1β, IL-6 expression; conditions: 100 ng/mL LPS 4 h
From the text: One microgram of cDNA of each treatment sample was synthesized by using SuperScript III First-Strand Synthesis (Invitrogen). Taqman mouse primers were purchased from ThermoFisher: TNFα (Catalog No. Mm00443258_m1), IL-6 (Catalog No. Mm00446190_m1), IL-1β (Catalog No. Mm00434228_m1), and GAPDH as endogenous housekeeping control (Catalog No. Mm99999915_g1). The qPCR reaction was set up for TNFα, IL-6, IL-1β, and GAPDH individually, with technical triplicates for each gene per treatment sample and performed by the Applied Biosystems ViiA 7 real-time PCR system. The ∆∆CT method was used to analyze the relative changes in gene expression.

[17] = tested on: human islets; assay: Western blot of pMST1 and caspase-3 cleavage under diabetogenic conditions; conditions: 72 h, six donors
[18] = target: SRC (Homo sapiens, UniProt P12931); assay: Nanosyn kinase profiling, mobility shift assay; conditions: read-out: % inhibition by neratinib
SRC, sequence (P12931 whole entry, species assumed): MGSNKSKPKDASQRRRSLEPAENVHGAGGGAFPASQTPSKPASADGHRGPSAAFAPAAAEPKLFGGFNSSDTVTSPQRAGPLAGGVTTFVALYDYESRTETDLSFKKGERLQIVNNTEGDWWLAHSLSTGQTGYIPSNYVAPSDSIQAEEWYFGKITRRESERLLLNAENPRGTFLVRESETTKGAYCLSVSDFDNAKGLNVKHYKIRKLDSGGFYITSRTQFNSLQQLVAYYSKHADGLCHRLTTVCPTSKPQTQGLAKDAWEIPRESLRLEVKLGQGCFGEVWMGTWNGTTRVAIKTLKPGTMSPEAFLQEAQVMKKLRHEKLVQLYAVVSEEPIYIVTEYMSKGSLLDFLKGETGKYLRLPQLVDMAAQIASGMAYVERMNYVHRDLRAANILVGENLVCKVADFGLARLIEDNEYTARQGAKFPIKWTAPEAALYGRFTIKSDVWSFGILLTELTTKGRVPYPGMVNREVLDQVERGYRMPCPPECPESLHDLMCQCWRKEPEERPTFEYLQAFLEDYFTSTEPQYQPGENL

CAMK4, sequence (Q16566 whole entry): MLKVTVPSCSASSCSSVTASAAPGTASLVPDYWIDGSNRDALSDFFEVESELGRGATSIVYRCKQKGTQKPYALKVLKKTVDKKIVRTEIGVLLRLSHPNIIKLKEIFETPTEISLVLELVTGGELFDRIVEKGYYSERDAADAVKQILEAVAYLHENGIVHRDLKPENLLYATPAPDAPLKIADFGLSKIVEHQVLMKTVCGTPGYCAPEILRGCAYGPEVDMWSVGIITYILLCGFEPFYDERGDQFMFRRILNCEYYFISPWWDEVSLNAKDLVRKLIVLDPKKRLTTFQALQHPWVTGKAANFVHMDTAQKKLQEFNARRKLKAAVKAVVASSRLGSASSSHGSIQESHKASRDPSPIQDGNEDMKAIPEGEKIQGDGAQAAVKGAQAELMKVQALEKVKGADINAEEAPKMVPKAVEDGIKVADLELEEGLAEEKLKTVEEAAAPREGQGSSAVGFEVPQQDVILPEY
IKK-BETA, sequence (O14920 whole entry): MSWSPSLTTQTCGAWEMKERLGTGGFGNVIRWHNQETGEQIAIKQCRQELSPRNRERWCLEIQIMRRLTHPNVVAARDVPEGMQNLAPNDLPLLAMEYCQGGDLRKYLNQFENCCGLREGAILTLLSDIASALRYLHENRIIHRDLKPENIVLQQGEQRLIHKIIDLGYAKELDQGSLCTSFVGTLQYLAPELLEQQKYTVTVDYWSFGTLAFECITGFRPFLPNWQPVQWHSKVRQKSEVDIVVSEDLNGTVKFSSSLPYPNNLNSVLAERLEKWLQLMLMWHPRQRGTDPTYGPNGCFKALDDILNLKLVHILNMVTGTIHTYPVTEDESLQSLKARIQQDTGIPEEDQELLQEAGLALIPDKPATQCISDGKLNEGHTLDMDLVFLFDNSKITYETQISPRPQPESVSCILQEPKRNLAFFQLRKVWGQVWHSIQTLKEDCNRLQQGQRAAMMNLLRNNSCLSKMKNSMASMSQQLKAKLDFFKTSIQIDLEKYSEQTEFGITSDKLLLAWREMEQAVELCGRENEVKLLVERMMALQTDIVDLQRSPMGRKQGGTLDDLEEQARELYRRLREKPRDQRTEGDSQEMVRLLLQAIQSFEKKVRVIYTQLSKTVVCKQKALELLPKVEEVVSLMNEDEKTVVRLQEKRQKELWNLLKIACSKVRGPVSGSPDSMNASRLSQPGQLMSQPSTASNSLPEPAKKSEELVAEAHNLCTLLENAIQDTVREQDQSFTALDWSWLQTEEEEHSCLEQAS
PRKD2, sequence (Q9BZL6 whole entry): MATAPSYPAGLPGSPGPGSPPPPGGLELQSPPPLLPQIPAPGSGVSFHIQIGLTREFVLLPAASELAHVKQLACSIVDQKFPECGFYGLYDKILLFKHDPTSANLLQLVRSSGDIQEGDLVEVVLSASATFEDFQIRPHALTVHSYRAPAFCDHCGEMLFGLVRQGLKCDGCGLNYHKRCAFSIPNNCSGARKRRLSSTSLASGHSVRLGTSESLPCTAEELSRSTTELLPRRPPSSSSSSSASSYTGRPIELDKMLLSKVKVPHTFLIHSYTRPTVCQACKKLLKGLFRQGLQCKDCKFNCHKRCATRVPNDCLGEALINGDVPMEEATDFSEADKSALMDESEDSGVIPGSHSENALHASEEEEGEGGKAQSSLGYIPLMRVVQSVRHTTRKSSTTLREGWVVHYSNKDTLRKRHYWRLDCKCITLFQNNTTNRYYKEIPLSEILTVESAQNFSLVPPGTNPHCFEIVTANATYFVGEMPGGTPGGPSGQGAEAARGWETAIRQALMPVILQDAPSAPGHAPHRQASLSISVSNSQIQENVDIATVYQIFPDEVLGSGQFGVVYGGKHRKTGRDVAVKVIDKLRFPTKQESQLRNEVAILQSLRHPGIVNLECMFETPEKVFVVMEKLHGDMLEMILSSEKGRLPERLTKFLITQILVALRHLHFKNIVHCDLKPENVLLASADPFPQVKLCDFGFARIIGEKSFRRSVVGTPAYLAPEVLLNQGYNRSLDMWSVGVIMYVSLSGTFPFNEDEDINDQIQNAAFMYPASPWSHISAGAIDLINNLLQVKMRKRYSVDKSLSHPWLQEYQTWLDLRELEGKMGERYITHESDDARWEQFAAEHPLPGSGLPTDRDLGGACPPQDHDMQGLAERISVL
TYK2, sequence (P29597 whole entry): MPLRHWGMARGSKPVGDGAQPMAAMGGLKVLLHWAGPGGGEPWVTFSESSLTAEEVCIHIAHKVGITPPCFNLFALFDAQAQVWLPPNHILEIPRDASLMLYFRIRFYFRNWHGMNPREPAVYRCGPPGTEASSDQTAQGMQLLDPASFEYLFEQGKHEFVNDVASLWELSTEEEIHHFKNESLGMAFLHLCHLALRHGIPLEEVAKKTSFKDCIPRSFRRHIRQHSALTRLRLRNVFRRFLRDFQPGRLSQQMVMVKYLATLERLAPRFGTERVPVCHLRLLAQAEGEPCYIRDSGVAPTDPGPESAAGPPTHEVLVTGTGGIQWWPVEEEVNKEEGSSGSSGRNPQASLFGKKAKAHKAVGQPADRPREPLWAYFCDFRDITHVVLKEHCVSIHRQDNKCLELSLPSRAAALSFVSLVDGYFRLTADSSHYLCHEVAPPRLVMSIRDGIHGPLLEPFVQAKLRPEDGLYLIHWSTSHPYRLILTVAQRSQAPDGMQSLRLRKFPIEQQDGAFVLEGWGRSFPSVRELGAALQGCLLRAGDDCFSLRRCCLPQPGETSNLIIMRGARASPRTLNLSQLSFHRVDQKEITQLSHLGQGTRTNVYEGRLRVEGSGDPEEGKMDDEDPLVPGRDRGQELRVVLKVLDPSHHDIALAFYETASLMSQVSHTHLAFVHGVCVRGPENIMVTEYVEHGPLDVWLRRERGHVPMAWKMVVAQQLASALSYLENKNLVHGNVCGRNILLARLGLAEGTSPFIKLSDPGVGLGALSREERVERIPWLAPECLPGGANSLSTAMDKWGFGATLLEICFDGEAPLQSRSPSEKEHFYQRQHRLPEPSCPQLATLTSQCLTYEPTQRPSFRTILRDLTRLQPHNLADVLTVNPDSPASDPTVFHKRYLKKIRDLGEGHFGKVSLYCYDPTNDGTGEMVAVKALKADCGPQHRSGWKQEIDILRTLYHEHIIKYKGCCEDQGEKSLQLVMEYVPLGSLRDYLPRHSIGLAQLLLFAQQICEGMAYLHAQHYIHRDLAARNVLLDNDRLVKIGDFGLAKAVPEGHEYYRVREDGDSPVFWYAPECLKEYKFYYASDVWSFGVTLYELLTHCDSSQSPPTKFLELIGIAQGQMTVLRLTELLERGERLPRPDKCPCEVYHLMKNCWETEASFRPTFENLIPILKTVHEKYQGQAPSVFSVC
CHEK1, sequence (O14757 whole entry): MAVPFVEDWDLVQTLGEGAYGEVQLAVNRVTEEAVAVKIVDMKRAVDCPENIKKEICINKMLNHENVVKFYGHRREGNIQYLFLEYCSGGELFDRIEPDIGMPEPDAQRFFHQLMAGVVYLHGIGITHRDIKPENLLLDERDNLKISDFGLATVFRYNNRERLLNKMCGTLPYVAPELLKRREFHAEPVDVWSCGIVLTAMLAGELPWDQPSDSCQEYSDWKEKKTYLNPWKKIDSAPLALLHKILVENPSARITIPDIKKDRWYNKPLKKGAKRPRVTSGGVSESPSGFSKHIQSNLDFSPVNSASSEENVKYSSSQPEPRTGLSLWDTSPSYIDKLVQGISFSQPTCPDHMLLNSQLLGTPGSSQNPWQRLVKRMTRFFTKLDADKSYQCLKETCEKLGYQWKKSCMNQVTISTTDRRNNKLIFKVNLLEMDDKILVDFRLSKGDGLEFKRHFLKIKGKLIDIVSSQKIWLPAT
MAPKAPK-2, sequence (P49137 whole entry): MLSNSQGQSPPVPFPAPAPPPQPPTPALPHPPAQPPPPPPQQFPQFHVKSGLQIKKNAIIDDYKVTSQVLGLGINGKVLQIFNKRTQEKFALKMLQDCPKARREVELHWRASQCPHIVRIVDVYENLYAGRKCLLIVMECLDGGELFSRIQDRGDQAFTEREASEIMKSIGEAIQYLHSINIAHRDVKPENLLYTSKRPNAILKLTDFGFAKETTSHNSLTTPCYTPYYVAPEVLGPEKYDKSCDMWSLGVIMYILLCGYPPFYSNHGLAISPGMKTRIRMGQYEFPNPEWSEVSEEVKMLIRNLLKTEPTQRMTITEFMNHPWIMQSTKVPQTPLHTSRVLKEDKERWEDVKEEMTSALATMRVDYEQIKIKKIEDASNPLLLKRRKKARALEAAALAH

CCOc1cc2ncc(C#N)c(Nc3ccc(OCc4ccccn4)c(Cl)c3)c2cc1NC(=O)/C=C/CN(C)C [neratinib] showed an inhibition at 10 µM [1] of -7%, an inhibition at 10 µM [2] of 71% and an inhibition at 10 µM [3] of 7%. For the same molecule, the inhibition at 10 µM [4] was 15%, the “glycemia in nondiabetic control mice” value ([5]; 5 mg/kg i.p. daily) was “no effect on glycemia” and the “glucose levels in STZ mice” value ([5]; 5 mg/kg i.p. daily, 35 days) was “lower glucose levels during the entire 35 days”. For the same molecule, the glycemia ([5]; NeraCtr (no STZ, neratinib 5 mg/kg i.p. daily), day 0, individual mice) was 136 mg/dL and 120 mg/dL and 165 mg/dL and 122 mg/dL and 87 mg/dL and 80 mg/dL and 78 mg/dL and 130 mg/dL, the AUC glycemia ([5]; NeraCtr, Mean) was 4215.5 and the glycemia ([5]; NeraCtr, day 3, individual mice) was 139 mg/dL and 103 mg/dL and 119 mg/dL and 117 mg/dL and 104 mg/dL and 116 mg/dL and 114 mg/dL and 149 mg/dL and 112 mg/dL. The glycemia ([5]; NeraCtr, day 7, individual mice) was 100 mg/dL and 134 mg/dL and 130 mg/dL and 92 mg/dL and 120 mg/dL and 106 mg/dL and 114 mg/dL and 125 mg/dL and 111 mg/dL, the glycemia ([5]; NeraCtr, day 9, individual mice) was 108 mg/dL and 93 mg/dL and 122 mg/dL and 89 mg/dL and 96 mg/dL and 109 mg/dL and 111 mg/dL and 90 mg/dL and the glycemia ([5]; NeraCtr, day 12, individual mice) was 138 mg/dL and 112 mg/dL and 125 mg/dL and 100 mg/dL and 117 mg/dL and 105 mg/dL and 86 mg/dL and 133 mg/dL. For the same molecule, the glycemia ([5]; NeraCtr, day 16, individual mice) was 104 mg/dL and 92 mg/dL and 112 mg/dL and 106 mg/dL and 96 mg/dL and 88 mg/dL and 118 mg/dL and 93 mg/dL, the glycemia ([5]; NeraCtr, day 22, individual mice) was 115 mg/dL and 102 mg/dL and 145 mg/dL and 144 mg/dL and 132 mg/dL and 113 mg/dL and 110 mg/dL and 103 mg/dL and 146 mg/dL and the glycemia ([5]; NeraCtr, day 28, individual mice) was 109 mg/dL and 137 mg/dL and 141 mg/dL and 103 mg/dL and 110 mg/dL and 127 mg/dL and 112 mg/dL and 156 mg/dL and 106 mg/dL. The glycemia ([5]; NeraCtr, day 36, individual mice) was 156 mg/dL and 132 mg/dL and 145 mg/dL and 146 mg/dL and 111 mg/dL and 114 mg/dL and 120 mg/dL and 109 mg/dL, the AUC glycemia ([5]; NeraCtr, individual mice) was 4340.5 and 4217 and 4748 and 4310 and 3997 and 3944.5 and 3991 and 4247 and 4144.5 and the glycemia ([5]; NeraSTZ (STZ + neratinib 5 mg/kg i.p. daily), day 0, individual mice) was 112 mg/dL and 125 mg/dL and 148 mg/dL. The AUC glycemia ([5]; NeraSTZ, Mean) was 7519.28, the glycemia ([5]; NeraSTZ, day 3, individual mice) was 94 mg/dL and 102 mg/dL and 117 mg/dL and the glycemia ([5]; NeraSTZ, day 7, individual mice) was 117 mg/dL and 131 mg/dL and 93 mg/dL. For the same molecule, the glycemia ([5]; NeraSTZ, day 9, individual mice) was 179 mg/dL and 138 mg/dL and 134 mg/dL, the glycemia ([5]; NeraSTZ, day 12, individual mice) was 250 mg/dL and 310 mg/dL and 180 mg/dL and the glycemia ([5]; NeraSTZ, day 16, individual mice) was 173 mg/dL and 303 mg/dL. The glycemia ([5]; NeraSTZ, day 22, individual mice) was 209 mg/dL and 344 mg/dL, the glycemia ([5]; NeraSTZ, day 28, individual mice) was 213 mg/dL and 229 mg/dL and the glycemia ([5]; NeraSTZ, day 36, individual mice) was 214 mg/dL and 337 mg/dL and 230 mg/dL. For the same molecule, the AUC glycemia ([5]; NeraSTZ, individual mice) was 6636.5 and 8897.5 and 6783.5 and 7009 and 8879.5 and 5194.5 and 8003.5 and 8416 and 7853.5, the body weight [6] was “no influence on body weight” and the inhibition at 10 µM [7] was 27%. The inhibition at 10 µM [8] was 19%, the “MST1/LATS2-induced YAP-S127 phosphorylation” value [9] was “strongly inhibited” and the “cytokine- and glucolipotoxicity-induced apoptosis in MST1-KO islets” value ([10]; 10 μM, 72 h) was “no significant effect”. The “mean TUNEL/isolation/%” value ([10]; MST1-KO HG/Pal Nera 10 μM 72 h) was 407.974%, the “mean TUNEL/isolation/%” value ([10]; MST1-KO ILIF Nera 10 μM 72 h) was 384.79% and the inhibition at 10 µM [11] was 28%. For the same molecule, the inhibition at 10 µM [12] was 73%, the inhibition at 10 µM [13] was 23% and the inhibition at 10 µM [14] was 14%. For the same molecule, the inhibition at 10 µM [15] was 9%, the “LPS-induced expression of TNFα, IL-1β, and IL-6” value [16] was “largely inhibited” and the “cytokine- and high glucose/palmitate-induced MST1 activation and caspase-3 activation” value [17] was “potently and significantly inhibited”. The inhibition at 10 µM [18] was 73%.
